Assay results: US9309187B2, “EP2 receptor agonists” (TAKEDA GMBH, priority 2012, dated 2016)

Legend:
[1] = biological target: T1, human prostanoid receptor EP2 (Homo sapiens, UniProt P43116); experiment: EP2 cAMP release assay in CHOp6CreLuc-huEP2 cells (CRE-luciferase readout); format: cell-based; conditions: CHOp6CreLuc-huEP2 cells, 4 hours at 37° C.; reported as range bins; read-out: EP2 cAMP release assay pEC50 (-log EC50) (converted)
T1 construct: expressed in transfected cells; host or cells: CHO-K1 (CHOp6CreLuc-huEP2)
Protocol: Method for Measuring cAMP Release in Human EP2 Stably Transfectant Cells:
The potency and efficacy of EP2 agonists have been determined via measuring cAMP release in stably transfectant CHO-K1 cell expressing the human prostanoid receptor EP2 and luciferase enzyme regulated via a 6 times CRE (cAMP response element) containing transcriptional promoter. CHOp6CreLuc-huEP2 cells were seeded into 384-well plate (1000 cells per well) in DMEM/F12 (Dulbecco's Modified Eagle Medium/Nutrient Mixture F12) cell culture medium containing 2% FCS (Fetal Calf Serum) and 500 μg/ml G418 24 hours prior to the experiment. Test compound was added as serial dilutions while keeping the final DMSO concentration constant in each well. […] Cells were incubated together with test compound or butaprost for 4 hours at 37° C. The cAMP release was determined indirectly via luciferase activity that directly correlated to the amount of luciferase enzyme expressed in response to cAMP regulated promoter activity. The luciferase activity was determined by addition of luciferin containing buffer and subsequent quantification of resulting luminescence. Each sample was measured in quadruplicates per experiment and half-maximal effective concentration (EC50) and relative maximal effect compared to butaprost was determined from 3 independent experiments with GraphPad Prism Software. A compound that achieved over 80% of the maximal effect of butaprost was considered as full agonist.
For the following compounds the potency was determined in the cAMP release assay applying human EP2 transfectant CHOp6CreLuc-huEP2 cells. […] The numbers of the compounds correspond to the examples numbers.
EP2 cAMP Release Assay: pEC50

[2] = tested on: TNFalpha release in human peripheral blood mononuclear cells (PBMC) stimulated with LPS; experiment: Inhibition of LPS induced TNFalpha release in human PBMCs; format: cell-based; conditions: 1 ng/mL LPS, 24 hours, reported as range bins, read-out: Inhibition of LPS induced TNFalpha release in human PBMCs pIC30 (-log IC30)
Protocol: Method for Measuring the Inhibition of TNFalpha Release in Human Peripheral Blood MononuClear Cells (PBMC) Stimulated with LPS:
Assay was performed with some modifications of the method described by Hatzelmann and Schudt (Hatzelmann and Schudt 2001, J. Pharmacol. Exp. Therapeutics 297: 267-279) and the protocol “drawing of venous blood from healthy volunteers for in vitro studies” was approved by the ethics committee of the Landesärztekammer Baden Württemberg in Stuttgart. Peripheral blood mononuclear cells (PBMCs) were isolated from venous blood with the anticoagulant citrate from healthy donors according to standard protocols using Ficoll. The cell layer of PBMCs were washed twice with phosphate buffer solution and equilibrated at room temperature for 60 minutes. 500,000 PBMCs in 180 microL RPMI1640 cell medium supplemented with 10% FCS, NEAA (Non-essential-amino-acids), L-Glutamine and Sodium Pyruvate per sample were pre-incubated with 10 microL of a serial dilution of test compound or piclamilast as positive control for 60 min. at 37° C. After pre-incubation blood samples were stimulated by the addition of 10 microL LPS (Sigma, Aldrich) per sample resulting in a final concentration of 1 ng/mL LPS and a final volume of 200 microL. Cells were incubated for 24 hours at 37° C. TNFalpha levels were determined from cell supernatant that was obtained by a centrifugation step and transferring the supernatant to a new 96-well plate. Content of TNFalpha was determined via alphaLISA Technology according to manufacture protocol (Perkin Elmer).
(§1) PBMC samples that were not stimulated with LPS were used as control and set for 100% inhibition. PBMC samples that were stimulated with LPS and solvent instead of test compound were set as 0% inhibition. Percent inhibition was calculated based on these controls for each sample and since most compounds achieved saturating maximal inhibition of 60% a pIC30 value was calculated with GraphPad Prism Software.
For the following compounds the inhibitory values of TNFalpha release [determined as −log IC30=pIC30] in human PBMCs between 5.0 and 5.9, between 6.0 and 6.9, between 7.0 and 7.9 and between 8.0 and 9.0 have been determined. The numbers of the compounds correspond to the examples numbers.
Inhibition of LPS Induced TNFalpha Release Assay in Human PBMCs: pIC30

[3] = biological target: T2, human EP2 receptor (Homo sapiens, UniProt P43116); experiment: EP2 binding assay (PGE2 displacement); conditions: recombinant human EP2 membranes, 1 nanoM [3H]-PGE2; reported as range bins; read-out: EP2 binding (PGE2 displacement) pIC50 (-log IC50) (converted)
T2 construct: purchased Millipore
Protocol: Method for Measuring Inhibition of PGE2 Binding to the Human Prostanoid Receptor EP2:
Human EP2 receptor equilibrium competition binding assays were performed according to Abramovitz et al. (M. Abramovitz et al. 2000, Biochimica et Biophysica Acta 1483: 285-293) in a final incubation volume of 100 microL in 50 milliM Bis-Tris, pH6.0 in 96-well plates. Radiolabelled Prostaglandin E2 (PGE2) (1 nanoM [^3H]-PGE2 purchased from Perkin Elmer) was added to the assay as competitive ligand. Test compounds stored as Dimethylsulfoxide (DMSO) stock solutions were added to the assay in serial dilutions in assay buffer while keeping the final DMSO concentration equal in each sample. The reaction was initiated by addition of membrane proteins harbouring human EP2 receptor (ChemiSCREEN™ membrane preparation recombinant human EP2 prostanoid receptor that was purchased by Millipore). Total binding was determined in the absence of test compound or PGE2 and non-specific binding was determined in the presence of 1 microM PGE2. Incubations were conducted for 60 minutes at room temperature until equilibrium was reached and terminated by filtration through GF/B filter (Perkin Elmer) prewetted with 0.3% PEI solution. Unbound radiolabelled PGE2 was removed by 8 wash cycles with the same buffer under ice-cold conditions and the filters containing the residual radioactivity were dried for 60 minutes at 60° C. In order to measure the filter bound radioactivity, 40 microL microscint (scintillation liquid) was added to each filter and the chemiluminescence was determined by TopCount-NTX™. The specific binding was calculated by subtracting non-specific binding from each sample. Percent inhibition by test compounds was calculated based on specific binding without test compound. Each sample was measured in triplicates per experiment and for the calculation of the pIC50 at least 2 independent experiments were performed. Determination of half maximal inhibiting concentration (IC50) was performed with GraphPad Prism Software.
The numbers of the compounds correspond to the examples numbers.
EP2 Binding Assay (PGE2 Displacement): pIC50 Values

[4] = tested on: TNFalpha release in human whole blood stimulated with LPS; experiment: Inhibition of LPS induced TNFalpha release in human whole blood; format: cell-based; conditions: 1 microg/mL LPS, 4 hours, reported as range bins, read-out: Inhibition of LPS induced TNFalpha release in human whole blood pIC30 (-log IC30)
Protocol: Method for Measuring the Inhibition of TNFalpha Release in Human Whole Blood Stimulated with LPS:
Assay was performed with some modifications of the method described by Hatzelmann and Schudt (Hatzelmann and Schudt (2001) JPET 297: 267-279) and the protocol “drawing of venous blood from healthy volunteers for in vitro studies” was approved by the ethics committee of the Landesärztekammer Baden Württemberg in Stuttgart.
Heparinised venous blood was equilibrated to assay conditions for 1 hour at room temperature upon blood drawing. Immediately thereafter, 200 microL whole blood per sample were pre-incubated with 25 microL of a serial dilution of test compound or piclamilast as positive control for 30 min. at 37° C. After pre-incubation blood samples were stimulated by the addition of 25 microL lipopolysaccharide (LPS) (Sigma, Aldrich) per sample resulting in a final concentration of 1 microg/mL LPS and a final volume of 250 microL. Cells were incubated for 4 hours at 37° C. TNFalpha levels were determined from plasma that was obtained by a centrifugation step and transferring the supernatant to a new 96-well plate which was again centrifuged and clear plasma supernatant was used for the measurement of TNFalpha via alphaLISA Technology according to manufacture protocol (Perkin Elmer).
as §1, with “Whole blood” for “PBMC”
For the following compounds the inhibitory values of TNFalpha release [determined as −log IC30=pIC30] in the human whole blood assay between 4.5 and 4.9, between 5.0 and 5.9 and between 6.0 and 6.9 have been determined. The numbers of the compounds correspond to the examples numbers.
Inhibition of LPS Induced TNFalpha Release Assay in Human Whole Blood: pIC30

T2 sequence (P43116 whole entry): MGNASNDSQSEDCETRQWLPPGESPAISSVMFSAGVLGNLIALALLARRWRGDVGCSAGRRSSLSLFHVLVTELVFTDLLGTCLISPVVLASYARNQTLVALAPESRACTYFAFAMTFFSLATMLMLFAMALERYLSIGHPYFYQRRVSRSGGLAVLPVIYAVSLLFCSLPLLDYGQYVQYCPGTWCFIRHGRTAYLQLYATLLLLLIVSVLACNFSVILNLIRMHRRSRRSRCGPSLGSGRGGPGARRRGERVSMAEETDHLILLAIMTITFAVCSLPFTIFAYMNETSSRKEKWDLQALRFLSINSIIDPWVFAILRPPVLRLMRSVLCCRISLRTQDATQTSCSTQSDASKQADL
T1 sequence (P43116 whole entry): as above

With `O=C(O)/C=C/c1cccc(NC(=O)c2cc(-c3cccc(O)c3)cc3ccccc23)c1` [Example 19, (2E)-3-[3-({[3-(3-hydroxyphenyl)naphthalen-1-yl]carbonyl}amino)phenyl]prop-2-enoic acid] the EC50 [1] was 0.00631 to 0.1 nM, the IC30 [2] was 12.6 to 100 nM and the IC50 [3] was 1.26 to 10 nM. For the same compound, the IC30 [4] was 126 to 1000 nM.

`O=C(O)/C=C/c1ccc(F)c(NC(=O)c2cc(N3CCCCC3)cc3ccccc23)c1` [Example 22, (2E)-3-[4-fluoro-3-({[3-(piperidin-1-yl)naphthalen-1-yl]carbonyl}amino)phenyl]prop-2-enoic acid] gave an EC50 [1] of 0.126 to 1 nM, an IC30 [2] of 12.6 to 100 nM and an IC50 [3] of 12.6 to 100 nM. The IC30 [4] was 1260 to 10000 nM.
